Laboratory results: patent publication US20250270222A1, “AP2 ASSOCIATED KINASE 1 INHIBITORS AND USES THEREOF” (Satellos Bioscience Inc., priority 2023, published 2025)

Experiments:
[1] = biological target: GAK (amino acids Q25-N335) (Homo sapiens (Human), UniProt O14976); experiment: GAK pSENs assay; type: biochemical
Method: (§1) The recombinant proteins were independently expressed in Esherichia coli BL21(DE3) cells cultured in Luria-Bertani (LB) medium until OD600 reached 0.6-0.8, then cooled to 15° C., and supplemented with 0.5 mM isopropyl 1-thio-D-galactopyranoside (IPTG) induce protein expression 16 h. Cells were harvested and resuspended in lysis buffer (50 mM HEPES pH 7.5, 500 mM NaCl, 5 mM imidazole, 5% glycerol, 0.5 mM Tris (2-carboxyethyl) phosphine (TCEP), cOmplete Protease Inhibitor Tablet (Roche)) and lysed by microfluidics high pressure homogenizer (UH-06, Union-Biotech). Proteins were purified using Ni-Affinity chromatography (His FF column, Bestchrom) and eluted stepwise in binding buffer with 20-300 mM imidazole. Removal of the hexahistidine tag was performed at 4° C. overnight using recombinant TEV protease and reacted with BirA to obtain the corresponding biotinylated-AAK1. BIKE or GAK proteins. Further separated in the reverse Strep column (Strep-Tactin® XT, IBA). The Biotin elution sample was collected containing untagged biotinylated protein was then purified by Ion-exchange chromatography (Mono Q 10/100 GL, Cytiva) and Size-exclusion chromatography (HiLoad 16/600 Superdex 200 pg, Cytiva). The pure protein was stored in a storage buffer 50 mM HEPES (pH 7.5), 300 mM NaCl, 5% glycerol at −80° C. Protein were characterized by SDS-PAGE. LC-MS and aSEC.
This example describes one illustrative method for determining the IC50 of the compounds of the present invention against GAK (amino acids Q25-N335).

[2] = biological target: AAK1 (amino acids T27-A365) (Homo sapiens (Human), UniProt Q2M2I8); experiment: AAK1 pSENs assay; type: biochemical; conditions: ratio of AAK1 pSENs activity to GAK pSENs activity
Method: as §1
This example describes one illustrative method for determining the IC50 of the compounds of the present invention against AAK1 (amino acids T27-A365). AAK1 protein was dissolved at 20 nM in 1× enzyme solution (50 mM HEPES pH7.5, 10 mM MgCl2, 1 mM DTT, 1% glycerol, 0.5 mM EGTA, 0.01% Briji35, 0.02% BSA) and 12.5 ul was incubated with 250 nl DMSO or 250 nl compound in DMSO at 25° C. for 15 min. The reaction was started by addition of 12.5 ul of 30 uM AQT0759 (Assayquant, CSKS-AQT0759B) and 70 uM ATP which were diluted in 1× substrate dilution buffer (50 mM HEPES pH7.5, 10 mM MgCl2, 1 mM DTT, 1% glycerol, 0.5 mM EGTA, 0.01% Briji35).

AAK1 (amino acids T27-A365), sequence (Q2M2I8 27-365): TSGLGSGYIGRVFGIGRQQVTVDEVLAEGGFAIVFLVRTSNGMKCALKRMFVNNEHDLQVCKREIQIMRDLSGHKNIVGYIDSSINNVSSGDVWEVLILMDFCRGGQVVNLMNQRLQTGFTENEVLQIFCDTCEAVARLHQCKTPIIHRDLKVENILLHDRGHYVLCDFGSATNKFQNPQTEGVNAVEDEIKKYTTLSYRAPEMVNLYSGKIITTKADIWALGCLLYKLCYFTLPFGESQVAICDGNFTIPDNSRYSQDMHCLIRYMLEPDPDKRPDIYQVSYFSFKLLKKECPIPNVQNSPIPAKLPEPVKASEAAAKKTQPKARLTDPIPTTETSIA
GAK (amino acids Q25-N335), sequence (O14976 25-335): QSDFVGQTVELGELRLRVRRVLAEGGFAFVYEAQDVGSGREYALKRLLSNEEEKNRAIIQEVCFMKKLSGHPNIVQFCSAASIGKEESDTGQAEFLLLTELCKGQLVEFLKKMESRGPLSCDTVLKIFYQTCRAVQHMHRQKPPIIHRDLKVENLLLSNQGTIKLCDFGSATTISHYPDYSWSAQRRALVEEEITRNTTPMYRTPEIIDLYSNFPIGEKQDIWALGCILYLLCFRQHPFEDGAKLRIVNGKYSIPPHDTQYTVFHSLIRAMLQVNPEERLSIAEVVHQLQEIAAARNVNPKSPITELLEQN

Row | IC50 [1] [µM] | AAK1:GAK pSENs Selectivity [2] | SMILES
1 | > 1.5 | A (A: ≤0.015) | CC(C)Oc1ncccc1-c1cnn2ccc(N3CCN(C(=O)O[C@@H]4CNC(=O)C4)CC3)nc12 [Compound I-26, [(3S)-5-Oxopyrrolidin-3-yl]-4-[3-(2-isopropoxy-3-pyridyl)pyrazolo[1,5-a]pyrimidin-5-yl]piperazine-1-carboxylate]
2 | > 1.5 | A (A: ≤0.015) | COc1ccccc1-c1cnn2ccc(N3CCN(C(=O)O[C@H]4CO[C@H]5OCC[C@H]54)CC3)nc12 [Compound I-69, (3R,3aS,6aR)-hexahydrofuro[2,3-b]furan-3-yl 4-(3-(2-methoxyphenyl)pyrazolo[1,5-a]pyrimidin-5-yl)piperazine-1-carboxylate]
3 | > 1.5 | A (A: ≤0.015) | COCCN1C[C@@H](OC(=O)N2CCN(c3ccn4ncc(-c5cccnc5OC5CC5)c4n3)CC2)CC1=O [Compound I-115, [(3S)-1-(2-methoxyethyl)-5-oxo-pyrrolidin-3-yl]-4-[3-[2-(cyclopropoxy)-3pyridyl]pyrazolo[1,5-a]pyrimidin-5-yl]piperazine-1-carboxylate]
4 | > 1.5 | A (A: ≤0.015) | COC(=O)N1CC(Oc2ncccc2-c2cnn3ccc(N4CCN(C(=O)O[C@@H]5CNC(=O)C5)CC4)nc23)C1 [Compound I-58, [(3S)-5-oxopyrrolidin-3-yl]-4-[3-[2-(1-methoxycarbonylazetidin-3-yl)oxy-3-pyridyl]pyrazolo[1,5-a]pyrimidin-5-yl]piperazine-1-carboxylate]
5 | > 1.5 | A (A: ≤0.015) | O=C1C[C@H](OC(=O)N2CCN(c3ccn4ncc(-c5cccnc5OC5COC5)c4n3)CC2)CN1 [Compound I-25, [(3S)-5-Oxopyrrolidin-3-yl]4-[3-[2-(oxetan-3-yloxy)-3-pyridyl]pyrazolo[1,5-a]pyrimidin-5-yl]piperazine-1-carboxylate]
6 | > 1.5 | A (A: ≤0.015) | O=C(O[C@H]1CO[C@H]2OCC[C@H]21)N1CCN(c2ccn3ncc(-c4cccnc4OC4CC4)c3n2)CC1 [Compound I-27, [(3aS,4R,6aR)-2,3,3a, 4,5,6a-hexahydrofuro[2,3-b]furan-4-yl]-4-[3-[2-(cyclopropoxy)-3-pyridyl]pyrazolo[1,5-a]pyrimidin-5-yl]piperazine-1-carboxylate]
7 | > 1.5 | C (C: 0.076-0.15) | CN(CCNc1ccn2ncc(-c3cccnc3OC3CC3)c2n1)C(=O)O[C@@H]1CNC(=O)C1 [Compound I-60]
8 | > 1.5 | A (A: ≤0.015) | O=C(O[C@H]1CC(=O)N(C2CCNCC2)C1)N1CCN(c2ccn3ncc(-c4cccnc4OC4CC4)c3n2)CC1 [Compound I-32, [(3S)-5-Oxo-1-(4-piperidyl)pyrrolidin-3-yl]4-[3-[2-(cyclopropoxy)-3-pyridyl]pyrazolo[1,5-a]pyrimidin-5-yl]piperazine-1-carboxylate]
9 | > 1.5 | A (A: ≤0.015) | CN1C[C@@H](OC(=O)N2CCN(c3nc4c(-c5cccnc5OC5CCOCC5)cnn4cc3F)CC2)CC1=O [Compound I-122]
10 |  | B (B: 0.016-0.075) | C#C[C@]1(OC(=O)N2CCN(c3ccn4ncc(-c5cccnc5OC5CC5)c4n3)CC2)CCNC1 [Compound I-15, [(3R)-3-Ethynylpyrrolidin-3-yl]-4-[3-[2-(cyclopropoxy)-3-pyridyl]pyrazolo[1,5-a]pyrimidin-5-yl]piperazine-1-carboxylate]
11 |  | B (B: 0.016-0.075) | C#CC1(OC(=O)N2CCN(c3ccn4ncc(-c5cccnc5OC5CC5)c4n3)CC2)CCNC1 (centres unmarked) [Compound I-16-7, 3-ethynylpyrrolidin-3-yl-4-(3-(2-cyclopropoxypyridin-3-yl)pyrazolo[1,5-a]pyrimidin-5-yl)piperazine-1-carboxylate]
12 |  | D (D: 0.16-1.00) | CC(C)(C)OC(=O)N1CCN(c2ccn3ncc(Cl)c3n2)CC1 [Compound I-100, tert-butyl 4-(3-chloropyrazolo[1,5-a]pyrimidin-5-yl)piperazine-1-carboxylate]
13 |  | E (E: >1.00) | CN1C[C@@H](OC(=O)N2CCN(c3ccn4ncc(Cl)c4n3)CC2)CC1=O [Compound I-96, [(3S)-1-methyl-5-oxo-pyrrolidin-3-yl]-4-(3-chloropyrazolo[1,5-a]pyrimidin-5-yl)piperazine-1-carboxylate]
14 |  | A (A: ≤0.015) | C[C@@]1(OC(=O)N2CCN(c3ccn4ncc(-c5cccnc5OC5CC5)c4n3)CC2)CCNC1 [Compound I-14, [(3R)-3-Methylpyrrolidin-3-yl]-4-[3-[2-(cyclopropoxy)-3-pyridyl]pyrazolo[1,5-a]pyrimidin-5-yl]piperazine-1-carboxylate]
15 |  | C (C: 0.076-0.15) | Oc1ncccc1-c1cnn2ccc(N3CCNCC3)nc12 [Compound I-106, 3-(5-piperazin-1-ylpyrazolo[1,5-a]pyrimidin-3-yl)pyridin-2-ol]

The next lines start with the molecule.

Row | SMILES | IC50 [1] [µM] | AAK1:GAK pSENs Selectivity [2]
16 | [2H]C([2H])([2H])N1C[C@@H](OC(=O)N2CCN(c3nc4c(-c5cccnc5OC5CC5)cnn4cc3F)CC2)CC1=O [Compound I-116, [(3S)-5-oxo-1-(trideuteriomethyl)pyrrolidin-3-yl]4-[3-[2-(cyclopropoxy)-3-pyridyl]-6-fluoro-pyrazolo[1,5-a]pyrimidin-5-yl]piperazine-1-carboxylate] | > 1.5 | A (A: ≤0.015)
17 | O=C1C[C@H](OC(=O)N2CCN(c3ccn4ncc(-c5cccnc5OC5CC5)c4n3)CC2)CN1 [Compound I-11, [(3S)-5-Oxopyrrolidin-3-yl]-4-[3-[2-(cyclopropoxy)-3-pyridyl]pyrazolo[1,5-a]pyrimidin-5-yl]piperazine-1-carboxylate hydrochloric acid] | > 1.5 | A (A: ≤0.015)
18 | O=C1C[C@@H](OC(=O)N2CCN(c3ccn4ncc(-c5cccnc5OC5CC5)c4n3)CC2)CN1 [Compound I-10, [(3R)-5-Oxopyrrolidin-3-yl]-4-[3-[2-(cyclopropoxy)-3-pyridyl]pyrazolo[1,5-a]pyrimidin-5-yl]piperazine-1-carboxylate] | > 1.5 | A (A: ≤0.015)
19 | COC(=O)N1CC(Oc2ncccc2-c2cnn3ccc(N4CCN(C(=O)O[C@@H]5CC(=O)N(CCO)C5)CC4)nc23)C1 [Compound I-84, [(3R)-1-(2-hydroxyethyl)-5-oxo-pyrrolidin-3-yl]4-[3-[2-(1-methoxycarbonylazetidin-3-yl)oxy-3-pyridyl]pyrazolo[1,5-a]pyrimidin-5-yl]piperazine-1-carboxylate] | > 1.5 | B (B: 0.016-0.075)
20 | [2H]C1([2H])N(C(=O)O[C@H]2CC(=O)N(C)C2)C([2H])([2H])C([2H])([2H])N(c2ccn3ncc(-c4cccnc4OC4CC4)c3n2)C1([2H])[2H] [Compound I-73, [(3S)-1-methyl-5-oxo-pyrrolidin-3-yl]-4-[3-[2-(cyclopropoxy)-3-pyridyl]pyrazolo[1,5-a]pyrimidin-5-yl]-2,2,3,3,5,5,6,6-octadeuterio-piperazine-1-carboxylate] | > 1.5 | 
21 | Brc1cnn2ccc(N3CCNCC3)nc12 [Compound I-103, 3-bromo-5-piperazin-1-yl-pyrazolo[1,5-a]pyrimidine] |  | E (E: >1.00)
22 | CN1C[C@@H](OC(=O)N2CCN(c3ccn4nccc4n3)CC2)CC1=O [Compound I-97, [(3S)-1-methyl-5-oxo-pyrrolidin-3-yl]-4-pyrazolo[1,5-a]pyrimidin-5-ylpiperazine-1-carboxylate] |  | E (E: >1.00)
23 | c1cc2nc(N3CCNCC3)ccn2n1 [Compound I-105, 5-piperazin-1-ylpyrazolo[1,5-a]pyrimidine] |  | E (E: >1.00)
24 | Clc1cnn2ccc(N3CCNCC3)nc12 [Compound I-104, 3-chloro-5-piperazin-1-yl-pyrazolo[1,5-a]pyrimidine] |  | E (E: >1.00)
25 | C#CC1(OC(=O)N2CCN(c3ccn4ncc(-c5cccnc5OC)c4n3)CC2)CCNC1 (centres unmarked) [Compound I-9, (3-Ethynylpyrrolidin-3-yl) 4-[3-(2-methoxy-3-pyridyl)pyrazolo[1,5-a]pyrimidin-5-yl]piperazine-1-carboxylate] |  | B (B: 0.016-0.075)
